The values below come from ChEMBL document CHEMBL5518159, “Thiazole-based analogues as potential antibacterial agents against methicillin-resistant Staphylococcus aureus (MRSA) and their SAR elucidation” (Eur J Med Chem, 2023).

≈ marks a conversion by molar mass, not a printed value.

For test [1], the system named is Staphylococcus aureus. Description: Antibacterial activity against […] Staphylococcus aureus ATCC 29213 assessed as reduction in bacterial growth incubated for 16 to 20 hrs by CLSI based two-fold serial dilution method. It counts as functional. The settings on record: time 16-20 hrs.
Test [2] deals with Escherichia coli. Description: Antibacterial activity against Escherichia coli ATCC 35210 assessed as reduction in microbial growth. It counts as functional.
In test [3] the test system is Staphylococcus aureus. Description: Antibacterial activity against vancomycin-resistant Staphylococcus aureus assessed as bacterial growth inhibition incubated for 18 to 24 hrs by CLSI-based microdilution method. It counts as functional. As to conditions: time 18-24 hrs. On the technique in general: Broth dilution looks for growth in wells or tubes with falling amounts of substance.

The subject of test [4] is Staphylococcus aureus. The experiment in a line: Antibacterial activity against methicillin-resistant Staphylococcus aureus assessed as inhibition of bacterial growth measured after 24 hrs by broth micro-dilution method. The class given is functional.
Test [5] deals with Staphylococcus aureus. Description: Antibacterial activity against Methicillin-resistant Staphylococcus aureus AUMC 261 assessed as bacterial growth inhibition incubated for 24 hrs by broth microdilution analysis. The class given is functional.
For the next test, the target named is DNA gyrase (Staphylococcus aureus, UniProt P0A0K8+P20831). The experiment in a line: Inhibition of Staphylococcus aureus DNA gyrase incubated for 30 mins by fluorescence based analysis. The class given is protein-complex assay.
Sequence of DNA gyrase (P0A0K8 whole entry): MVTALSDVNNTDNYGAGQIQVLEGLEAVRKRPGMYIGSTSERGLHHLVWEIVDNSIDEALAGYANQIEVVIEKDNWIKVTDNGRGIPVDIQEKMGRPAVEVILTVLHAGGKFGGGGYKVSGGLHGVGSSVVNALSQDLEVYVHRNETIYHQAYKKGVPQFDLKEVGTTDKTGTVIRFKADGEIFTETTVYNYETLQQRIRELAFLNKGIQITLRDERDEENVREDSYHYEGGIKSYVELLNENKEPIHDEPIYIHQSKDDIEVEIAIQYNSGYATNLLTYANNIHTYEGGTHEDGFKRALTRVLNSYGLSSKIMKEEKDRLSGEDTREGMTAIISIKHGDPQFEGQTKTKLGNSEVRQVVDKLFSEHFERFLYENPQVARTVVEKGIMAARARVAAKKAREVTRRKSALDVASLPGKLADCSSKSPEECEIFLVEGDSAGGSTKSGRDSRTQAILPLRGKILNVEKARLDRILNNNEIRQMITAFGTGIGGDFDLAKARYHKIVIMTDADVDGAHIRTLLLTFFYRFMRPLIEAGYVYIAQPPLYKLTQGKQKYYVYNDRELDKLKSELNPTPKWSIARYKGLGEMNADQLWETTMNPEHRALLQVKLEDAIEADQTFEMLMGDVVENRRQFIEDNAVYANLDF
Sequence of DNA gyrase (P20831 whole entry): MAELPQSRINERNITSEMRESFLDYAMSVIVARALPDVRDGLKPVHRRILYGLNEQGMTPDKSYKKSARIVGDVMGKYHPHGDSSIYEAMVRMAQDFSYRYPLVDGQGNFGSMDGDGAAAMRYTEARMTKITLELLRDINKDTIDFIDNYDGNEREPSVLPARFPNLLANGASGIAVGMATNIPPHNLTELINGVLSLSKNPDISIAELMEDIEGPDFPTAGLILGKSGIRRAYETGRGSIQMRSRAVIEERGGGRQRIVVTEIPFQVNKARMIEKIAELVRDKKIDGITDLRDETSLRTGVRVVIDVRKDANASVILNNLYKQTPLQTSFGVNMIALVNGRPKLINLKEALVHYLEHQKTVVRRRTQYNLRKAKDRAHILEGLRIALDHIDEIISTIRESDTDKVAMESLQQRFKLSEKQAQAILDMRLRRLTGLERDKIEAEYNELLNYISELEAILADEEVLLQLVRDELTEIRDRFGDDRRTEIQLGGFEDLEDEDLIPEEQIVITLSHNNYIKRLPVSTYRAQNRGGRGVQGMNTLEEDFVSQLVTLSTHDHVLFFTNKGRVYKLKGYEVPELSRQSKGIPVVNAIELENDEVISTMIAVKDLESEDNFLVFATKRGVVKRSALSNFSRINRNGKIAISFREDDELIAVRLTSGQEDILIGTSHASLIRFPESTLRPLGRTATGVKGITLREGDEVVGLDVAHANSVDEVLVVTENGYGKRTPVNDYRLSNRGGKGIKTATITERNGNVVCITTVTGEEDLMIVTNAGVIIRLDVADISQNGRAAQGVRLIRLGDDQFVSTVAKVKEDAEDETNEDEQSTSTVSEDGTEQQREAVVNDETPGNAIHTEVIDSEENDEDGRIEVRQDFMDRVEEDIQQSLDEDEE
The test system of test [6] is Staphylococcus aureus. Description: Antibacterial activity against Staphylococcus aureus ATCC 43300 assessed as microbial inhibition incubated for 24 hrs by broth micro-dilution method. It counts as functional.
Test [7] has as its system Staphylococcus aureus. The experiment in a line: Antimicrobial activity against methicillin-resistant Staphylococcus aureus assessed as inhibition of microbial growth incubated for 16 hrs by microdilution method. The class given is functional, organism-based.
The subject of test [8] is Staphylococcus aureus. Description: Antibacterial activity against Methicillin-resistant Staphylococcus aureus […] assessed as reduction in microbial growth incubated for 18 to 24 hrs by broth micro-dilution method. The class given is functional. The settings on record: time 18-24 hrs.
Test [9] concerns Escherichia coli. Description: Antibacterial activity against Escherichia coli ATCC 25922 assessed as reduction in bacterial growth incubated for 18 to 24 hrs by broth microdilution method. The class given is functional. As to conditions: time 18-24 hrs.
The test system of test [10] is Staphylococcus aureus. Description: Antibacterial activity against […] Staphylococcus aureus ATCC 6538 assessed as bacterial growth inhibition incubated for 24 hrs by broth micro-dilution method. The class given is functional.
The test system of test [11] is Staphylococcus aureus. The experiment in a line: Antibacterial activity against Methicillin-resistant Staphylococcus aureus […] assessed as reduction in microbial growth. It counts as functional.
Test [12] has as its system Escherichia coli. Description: Antibacterial activity against Escherichia coli ATCC 25922 assessed as reduction in bacterial growth by broth microdilution method. It counts as functional.
Test [13] has as its system Escherichia coli. The experiment in a line: Antibacterial activity against Escherichia coli ATCC 35210 assessed as reduction in bacterial growth measured for 24 hrs by broth micro-dilution method. It counts as functional.
The test system of test [14] is Staphylococcus aureus. The experiment in a line: Antibacterial activity against methicillin-resistant Staphylococcus aureus ATCC 33592 assessed as reduction in bacterial growth. It counts as functional.
Test [15] concerns Escherichia coli. Description: Antibiofilm activity against Escherichia coli ATCC 25922 assessed as reduction in biofilm formation at 50 uM incubated for 24 hrs by crystal violet staining based analysis relative to control. Set-up: scale not given: the % may be the effect or the level left. The class given is functional.
The test system of test [16] is Staphylococcus aureus. The experiment in a line: Antibacterial activity against Staphylococcus aureus ATCC 49444 assessed as reduction in microbial growth. It counts as functional.
Another test deals with Pseudomonas aeruginosa. Description: Antibacterial activity against Pseudomonas aeruginosa assessed as reduction in bacterial growth by broth microdilution method. The class given is functional.
Test [17] deals with Escherichia coli. The experiment in a line: Antibacterial activity against Escherichia coli ATCC 35210 assessed as reduction in bacterial growth by broth microdilution method. It counts as functional.
In test [18] the test system is Staphylococcus aureus. The experiment in a line: Antibacterial activity against Methicillin-sensitive Staphylococcus aureus ATCC 6538 assessed as reduction in microbial growth. It counts as functional.
The subject of test [19] is Staphylococcus aureus. Description: Antibacterial activity against Methicillin-resistant Staphylococcus aureus assessed as reduction of microbial growth by Muller Hinton broth based dilution assay. The class given is functional.
Test [20] deals with Staphylococcus aureus. Description: Antibacterial activity against […] Staphylococcus aureus ATCC 6538 assessed as reduction in bacterial growth incubated for 24 hrs by broth micro-dilution method. The class given is functional.
In test [21] the test system is Staphylococcus aureus. Description: Antibacterial activity against clinical isolate Methicillin resistant Staphylococcus aureus 2658 RCMB assessed as reduction in microbial growth incubated for 16 to 24 hrs by CLSI-based Muller Hinton broth based microdilution method. It counts as functional. The settings on record: time 16-24 hrs.
The test system of test [22] is Staphylococcus aureus. Description: Antimicrobial activity against Methicillin-resistant Staphylococcus aureus ATCC 43300 assessed as bacterial growth inhibition incubated for 18 hrs by broth micro-dilution method. It counts as functional.
The test system of test [23] is Staphylococcus aureus. Description: Antibacterial activity against Methicillin-sensitive Staphylococcus aureus ATCC 43300 assessed as reduction in microbial growth by CLSI based broth microdilution method. It counts as functional.
Test [24] relates to Staphylococcus aureus. The experiment in a line: Antibacterial activity against Methicillin-resistant Staphylococcus aureus ATCC 43300 assessed as reduction in bacterial growth measured for 24 hrs by CLSI based broth microdilution method. It counts as functional.

By MIC is commonly meant the least concentration at which growth counts as inhibited. As to `CCCCCCNc1ccc(S(=O)(=O)CC(=O)c2nccs2)cc1`, the minimal inhibitory concentration (MIC) with Staphylococcus aureus [1] is 1 mg/L (≈ 2.73 µM). On to `CCc1nc(N2CCN(CC(=O)Nc3nccs3)CC2)c(C#N)c2c1COC(C)(C)C2`, for which the minimum inhibitory concentration (MIC) with Escherichia coli [2] was found to be 230 mg/L. For `O=C(O)CCN(c1ccc(Nc2ccccc2)cc1)c1nc(-c2ccc(F)cc2)cs1`, the minimum inhibitory concentration (MIC) in the test with Staphylococcus aureus [3] was 1 mg/L (≈ 2.31 µM). For the compound `Cc1cnc(/C=c2\[nH]c(=O)/c(=C\c3cccc(F)c3)s2)s1`, the MIC with Staphylococcus aureus [4] was found to be 40 mg/L (≈ 126 µM). As to `CCCCCNc1ccc(S(=O)(=O)CC(=O)c2nccs2)cc1`, in the test with Staphylococcus aureus [1], the MIC was found to be 1 mg/L (≈ 2.84 µM). `O=C(O)c1cn(C2CC2)c2cc(N3CCN(C(=O)CN4C(=O)S/C(=C\c5ccc(F)cc5)C4=O)CC3)c(F)cc2c1=O`: the MIC with Staphylococcus aureus [5] came out at 2.88 mg/L (≈ 4.84 µM).

The term IC50 denotes the concentration that gives 50% inhibition. As for `O=S(=O)(c1ccc2nc3s/c(=N/N=C\c4cccs4)n(-c4ccc(Cl)cc4)c3nc2c1)N1CCOCC1`, the half-inhibitory concentration (IC50) at DNA gyrase amounted to 10.4 µM. The MIC with Staphylococcus aureus [6] is 1.25 mg/L (≈ 2.19 µM). Take `CO/N=C(/COc1ccc2c(C)cc(=O)oc2c1)c1nccs1`: the IC50 in the test with Staphylococcus aureus [7] amounted to 1 mg/L. Consider `COc1ccc(N/N=C2/S/C(=N\N=C3/C(=O)Nc4ccc(Br)cc43)N=C2C)cc1`, for which the MIC with Staphylococcus aureus [8] amounted to 1 mg/L; in the test on Escherichia coli [9], 1 mg/L (≈ 2.12 µM). Take `COc1ccc(/C=c2/s/c(=C/c3ncc(C)s3)[nH]c2=O)cc1`: the MIC in the test with Staphylococcus aureus [4] is 40 mg/L (≈ 121 µM). As for `CCOc1ccc2nc(N3C(=O)CSC3c3ccc(OC)cc3)sc2c1` (configuration not stated), the MIC in the test with Staphylococcus aureus [10] turned out to be 90 mg/L (≈ 233 µM). Turning to `Cc1[nH]c2ccc(Cl)cc2c1-c1csc(N)n1`, the MIC worked out at 230 mg/L in the test on Staphylococcus aureus [11], 60 mg/L (≈ 227 µM) with Escherichia coli [12], 60 mg/L (≈ 227 µM) in the test with Escherichia coli [13] and 100 mg/L (≈ 379 µM) in the test on Staphylococcus aureus [14]. `CCOC1=NC(=N/N=C2\C(=O)Nc3ccc(Br)cc32)/S/C1=N/Nc1ccccc1`: the minimal inhibitory concentration (MIC) worked out at 8 mg/L in the test with Staphylococcus aureus [8] and 4 mg/L (≈ 8.49 µM) in the test on Escherichia coli [9]. Besides, the Activity in the test with Escherichia coli [15] came to 90%.

Consider `O=c1c2ccccc2nc(C(c2nccs2)c2nccs2)n1-c1ccc(F)cc1`, for which, in the test on Staphylococcus aureus [16], the MIC was determined as 32 mg/L.

For `COc1cc(CCN)c(-c2csc(-c3ccc(O)cc3)n2)cc1OC`, the minimum inhibitory concentration (MIC) was less than 230 mg/L with Pseudomonas aeruginosa, less than 230 mg/L in the test on Escherichia coli [17] and 700 mg/L in the test on Staphylococcus aureus [18]. As for `O=C(/C(=C/c1ccc(-c2ccc(Cl)cc2Cl)cc1)Oc1ccc2c(CN(CCO)CCO)cc(=O)oc2c1)c1nccs1`, in the test with Staphylococcus aureus [19], the MIC is 4 mg/L. As to `N#Cc1c(N2CCN(CC(=O)Nc3nccs3)CC2)nc(-c2ccco2)c2c1CCC2`, the MIC with Escherichia coli [2] is 230 mg/L.

On to `O=C1CSC(c2ccc([N+](=O)[O-])cc2)N1c1nc2ccc(Cl)cc2s1` (configuration not stated), for which, in the test on Staphylococcus aureus [20], the MIC turned out to be 100 mg/L (≈ 255 µM).

Turning to `O=C1CSC(c2ccc([N+](=O)[O-])cc2)N1c1nc2c(Cl)cccc2s1` (configuration not stated), in the test with Staphylococcus aureus [10], the minimum inhibitory concentration (MIC) was 90 mg/L (≈ 230 µM). Regarding `O=C(/C(=C/c1ccc(-c2ccc([N+](=O)[O-])cc2)cc1)Oc1ccc2c(CN(CCO)CCO)cc(=O)oc2c1)c1nccs1`, the minimum inhibitory concentration (MIC) with Staphylococcus aureus [19] was found to be 4 mg/L. As to `Cc1nc(-c2ccc3ccccc3c2)sc1-c1nnc(NC(=N)N2CCN(C)CC2)o1`, the minimal inhibitory concentration (MIC) with Staphylococcus aureus [21] amounted to 1.9 mg/L.

Take `O=C(O)c1cn(C2CC2)c2cc(N3CCN(C(=O)CN4C(=O)S/C(=C\c5ccc([N+](=O)[O-])cc5)C4=O)CC3)c(F)cc2c1=O`: the MIC in the test with Staphylococcus aureus [5] turned out to be 2.88 mg/L (≈ 4.63 µM). As for `CC(C)Cc1nc(N2CCN(CC(=O)Nc3nccs3)CC2)c(C#N)c2c1CCC2`, in the test on Escherichia coli [2], the MIC is 230 mg/L. `O=C(O)c1cn(C2CC2)c2cc(N3CCNCC3)c(F)cc2c1=O` [CIPROFLOXACIN]: the results for the MIC with Staphylococcus aureus [5] and in the test with Staphylococcus aureus [22] were 0.2 mg/L (≈ 0.604 µM) and 32 mg/L (≈ 96.6 µM), respectively. By MIC90 is commonly meant an inhibitory concentration at the 90% level, which refers to growth in some studies and to a panel of isolates in others. What is called MIC50 is an inhibitory concentration at the 50% level, which refers to growth in some studies and to a panel of isolates in others. Regarding `CN[C@H](CC(C)C)C(=O)N[C@H]1C(=O)N[C@@H](CC(N)=O)C(=O)N[C@H]2C(=O)N[C@H]3C(=O)N[C@H](C(=O)N[C@H](C(=O)O)c4cc(O)cc(O)c4-c4cc3ccc4O)[C@H](O)c3ccc(c(Cl)c3)Oc3cc2cc(c3O[C@@H]2O[C@H](CO)[C@@H](O)[C@H](O)[C@H]2O[C@H]2C[C@](C)(N)[C@H](O)[C@H](C)O2)Oc2ccc(cc2Cl)[C@H]1O` [VANCOMYCIN], in the test with Staphylococcus aureus [23], the MIC90 amounted to 16 mg/L. Besides, the MIC50 in the test with Staphylococcus aureus [24] stood at 4 mg/L (≈ 2.76 µM). In the test with Staphylococcus aureus [4], the MIC worked out at 1.95 mg/L (≈ 1.35 µM).
